Tests used:
[1] = target: Human immunodeficiency virus type 1 reverse transcriptase (Human immunodeficiency virus 1) (UniProt Q72547)
[2] = target: Human immunodeficiency virus type 1 reverse transcriptase (Human immunodeficiency virus 1, UniProt Q72547); assay: Inhibitory activity against HIV-1 reverse transcriptase

| Structure (SMILES) | IC90 [1] [nM] | IC50 [2] [nM] |
| --- | --- | --- |
| CC(C)C#CC1(C(F)(F)F)OC(=O)Nc2ccc(N)cc21 (stereo not given) | 27.5 | 896 |
| O=C1Nc2ccc([N+](=O)[O-])cc2C(C#CC2CC2)(C(F)(F)F)O1 (stereo not given) | 0.83 | 209 |
| CCC#CC1(C(F)(F)F)OC(=O)Nc2cccc(F)c21 (stereo not given) | 4.18 | 127 |
| CC(C)C#CC1(C(F)(F)F)OC(=O)Nc2ccc([N+](=O)[O-])cc21 (stereo not given) | 3.35 | 199 |
| CCC#CC1(C(F)(F)F)OC(=O)Nc2ccc([N+](=O)[O-])cc21 (stereo not given) | 2.23 | 276 |
| CCCC#CC1(C(F)(F)F)OC(=O)Nc2cccc(F)c21 (stereo not given) | 5.64 | 156 |
| CCC#CC1(C(F)(F)F)OC(=O)Nc2ccc(N)cc21 (stereo not given) | 45.7 | 1890 |
| CNc1ccc2c(c1)C(C#CC1CC1)(C(F)(F)F)OC(=O)N2 (stereo not given) | 9.02 | 608 |
| O=C1Nc2cccc(F)c2C(C#CC2CC2)(C(F)(F)F)O1 (stereo not given) | 4.34 | 78 |
| CCCC#CC1(C(F)(F)F)OC(=O)Nc2ccc([N+](=O)[O-])cc21 (stereo not given) | 4.57 | 304 |
| CC(=O)Nc1ccc2c(c1)C(C#CC1CC1)(C(F)(F)F)OC(=O)N2 (stereo not given) | 296 | > 2000 |
| CC(=O)Nc1ccc2c(c1)C(C#CC(C)C)(C(F)(F)F)OC(=O)N2 (stereo not given) | 500 | > 2000 |
| CCCC#CC1(C(F)(F)F)OC(=O)Nc2ccc(N)cc21 (stereo not given) | 33.5 | 1510 |
| Nc1ccc2c(c1)C(C#CC1CC1)(C(F)(F)F)OC(=O)N2 (stereo not given) | 20.6 | 802 |
| CNc1ccc2c(c1)C(C#CC(C)C)(C(F)(F)F)OC(=O)N2 (stereo not given) | 10.2 | 473 |
